The source made the active and inactive calls. The rule behind the calls is not given here.
Columns and labels:
[1] = test system: Huh-7; assay: Antiproliferative activity against human HuH7 cells after 48 hrs by Hoechst 33342 staining-based assay; format: functional, cell-based; details: Huh-7, 48 h
[2] = test system: Huh-7; assay: Antiproliferative activity against human HuH7 cells at 0.1 to 25 uM after 48 hrs by Hoechst 33342 staining-based assay relative to control; format: functional
[3] = test system: Caco-2; assay: Antiproliferative activity against human Caco2 cells after 48 hrs by Hoechst 33342 staining-based assay; format: functional, cell-based; details: Caco-2, 48 h
[4] = test system: MDA-MB-231; assay: Antiproliferative activity against human MDA-MB-231 cells after 48 hrs by Hoechst 33342 staining-based assay; format: functional, cell-based; details: MDA-MB-231, 48 h
[5] = test system: MDA-MB-231; assay: Antiproliferative activity against human MDA-MB-231 cells at 0.1 to 25 uM after 48 hrs by Hoechst 33342 staining-based assay relative to control; format: functional
[6] = test system: HCT-116; assay: Antiproliferative activity against human HCT116 cells after 48 hrs by Hoechst 33342 staining-based assay; format: functional, cell-based; details: HCT-116, 48 h
[7] = test system: HCT-116; assay: Antiproliferative activity against human HCT116 cells at 0.1 to 25 uM after 48 hrs by Hoechst 33342 staining-based assay relative to control; format: functional
[8] = test system: PC-3; assay: Antiproliferative activity against human PC3 cells after 48 hrs by Hoechst 33342 staining-based assay; format: functional, cell-based; details: PC-3, 48 h
[9] = test system: PC-3; assay: Antiproliferative activity against human PC3 cells at 0.1 to 25 uM after 48 hrs by Hoechst 33342 staining-based assay relative to control; format: functional
[10] = test system: NCI-H727; assay: Antiproliferative activity against human NCI-H727 cells after 48 hrs by Hoechst 33342 staining-based assay; format: functional, cell-based; details: NCI-H727, 48 h
[11] = test system: NCI-H727; assay: Antiproliferative activity against human NCI-H727 cells at 0.1 to 25 uM after 48 hrs by Hoechst 33342 staining-based assay relative to control; format: functional
[12] = test system: HaCaT; assay: Antiproliferative activity against human HaCaT cells after 48 hrs by Hoechst 33342 staining-based assay; format: cell-based
[13] = test system: HaCaT; assay: Antiproliferative activity against human HaCaT cells at 0.1 to 25 uM after 48 hrs by Hoechst 33342 staining-based assay relative to control; format: cell-based
[14] = test system: Fibroblast; assay: Antiproliferative activity against human fibroblast cells after 48 hrs by Hoechst 33342 staining-based assay; format: cell-based
[15] = test system: Fibroblast; assay: Antiproliferative activity against human fibroblast cells at 0.1 to 25 uM after 48 hrs by Hoechst 33342 staining-based assay relative to control; format: cell-based
[16] = biological target: Mitogen-activated protein kinase; ERK1/ERK2 (Homo sapiens) (UniProt P27361+P28482); assay: Inhibition of EGF-stimulated p44/42 phosphorylation in human MDA-MB-468-Luc cells at 10^-5 M pre-incubated for 1 hr before EGF stimulation for 15 mins by Western blot analysis relative to control; format: cell-based
Mitogen-activated protein kinase; ERK1/ERK2 (Homo sapiens), sequence (P27361 whole entry, looked up): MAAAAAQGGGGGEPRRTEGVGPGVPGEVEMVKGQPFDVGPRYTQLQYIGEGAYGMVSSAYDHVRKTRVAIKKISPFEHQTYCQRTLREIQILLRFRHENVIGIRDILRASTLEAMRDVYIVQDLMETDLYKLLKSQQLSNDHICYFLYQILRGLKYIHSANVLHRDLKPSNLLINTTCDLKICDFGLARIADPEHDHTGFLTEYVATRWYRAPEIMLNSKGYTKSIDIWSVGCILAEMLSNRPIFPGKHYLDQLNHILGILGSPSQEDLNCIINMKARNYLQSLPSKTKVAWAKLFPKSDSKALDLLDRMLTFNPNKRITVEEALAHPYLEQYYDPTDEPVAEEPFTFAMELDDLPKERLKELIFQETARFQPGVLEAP
Mitogen-activated protein kinase; ERK1/ERK2 (Homo sapiens), sequence (P28482 whole entry, looked up): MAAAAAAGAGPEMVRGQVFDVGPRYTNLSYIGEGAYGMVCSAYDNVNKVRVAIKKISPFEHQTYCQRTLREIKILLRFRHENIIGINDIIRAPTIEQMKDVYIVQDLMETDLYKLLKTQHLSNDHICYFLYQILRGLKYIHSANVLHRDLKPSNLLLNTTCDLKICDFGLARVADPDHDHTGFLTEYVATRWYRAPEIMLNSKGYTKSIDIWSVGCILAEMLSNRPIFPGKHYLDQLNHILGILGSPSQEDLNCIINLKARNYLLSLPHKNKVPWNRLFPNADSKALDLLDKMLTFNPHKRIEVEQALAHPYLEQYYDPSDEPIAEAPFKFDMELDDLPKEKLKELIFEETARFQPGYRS

[17] = biological target: RAC-alpha serine/threonine-protein kinase (Homo sapiens) (UniProt P31749); assay: Inhibition of EGF-stimulated Akt phosphorylation in human MDA-MB-468-Luc cells at 10^-5 M pre-incubated for 1 hr before EGF stimulation for 15 mins by Western blot analysis relative to control; format: cell-based
RAC-alpha serine/threonine-protein kinase (Homo sapiens), sequence (P31749 whole entry): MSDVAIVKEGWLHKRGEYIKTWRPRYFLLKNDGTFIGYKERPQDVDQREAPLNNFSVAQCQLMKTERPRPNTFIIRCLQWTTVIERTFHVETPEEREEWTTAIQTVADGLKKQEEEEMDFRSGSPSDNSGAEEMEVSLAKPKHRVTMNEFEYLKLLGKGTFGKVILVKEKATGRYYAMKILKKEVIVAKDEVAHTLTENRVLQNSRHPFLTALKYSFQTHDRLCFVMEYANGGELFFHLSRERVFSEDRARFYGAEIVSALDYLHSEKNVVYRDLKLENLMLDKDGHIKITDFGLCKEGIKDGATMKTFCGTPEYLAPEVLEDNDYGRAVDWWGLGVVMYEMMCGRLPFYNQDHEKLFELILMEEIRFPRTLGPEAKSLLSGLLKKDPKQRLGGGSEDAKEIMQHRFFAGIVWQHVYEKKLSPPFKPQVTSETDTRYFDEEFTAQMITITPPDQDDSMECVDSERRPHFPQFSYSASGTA

[18] = test system: MDA-MB-468; assay: Anticlonogenic activity against human MDA-MB-468 cells harboring luciferase reporter gene after 2 weeks by Giemsa staining-based assay; format: functional, cell-based; details: MDA-MB-468, 336 h
[19] = test system: HepaRG; assay: Hepatotoxicity in human HepaRG cells at 2.5 uM after 48 hrs; format: toxicity, cell-based
[20] = Toxicity in zebrafish embryos assessed as alive embryo at 0.8 uM after 72 hrs; parameters: species or system Danio rerio; details: in vivo
[21] = Toxicity in zebrafish embryos assessed as effect on embryo mobility at 0.8 uM after 72 hrs; parameters: species or system Danio rerio; details: in vivo
[22] = Toxicity in zebrafish embryos assessed as effect on embryo development at 0.8 uM after 72 hrs; parameters: species or system Danio rerio; details: in vivo
[23] = Toxicity in zebrafish embryos assessed as reduction in eye size at 0.8 uM after 72 hrs; parameters: species or system Danio rerio; details: in vivo
[24] = Toxicity in zebrafish embryos assessed as reduction in eye size at 2.5 uM after 72 hrs; parameters: species or system Danio rerio; details: in vivo
[25] = Toxicity in zebrafish embryos at 2.5 uM after 72 hrs; parameters: species or system Danio rerio; details: in vivo

| SMILES | IC50 [1] [nM] | Activity [2] [%] | IC50 [3] [nM] | IC50 [4] [nM] | Activity [5] [%] | IC50 [6] [nM] | Activity [7] [%] | IC50 [8] [nM] | Activity [9] [%] | IC50 [10] [nM] | Activity [11] [%] | IC50 [12] [nM] | Activity [13] [%] | IC50 [14] [nM] | Activity [15] [%] | inhibition [16] | inhibition [17] | IC50 [18] [nM] | also measured |
| --- | --- | --- | --- | --- | --- | --- | --- | --- | --- | --- | --- | --- | --- | --- | --- | --- | --- | --- | --- |
| CCN(CC)c1ccc(-c2ccc(C(=O)OC)cc2)nn1 | 90 | 60 | 250 | 140 | 60 | 60 | 100 | 90 | 72 | 90 | 60 | 80 | 85 | 100 | 40 | 70% | > 70% | 15 | Activity [19]: Non-Toxic; Activity [20]: Non-Toxic; Activity [21]: Non-Toxic; Activity [22]: Non-Toxic; Activity [23]: Non-Toxic; Activity [24]: Toxic; Activity [25]: Toxic |
| CCOC(=O)c1ccc(-c2ccc(N(C)C)nn2)cc1 | > 25000 | – | > 25000 | > 25000 | – | > 25000 | – | > 25000 | – | > 25000 | – | – | – | > 25000 | – | inactive | inactive | 26000 | – |
| CCN(CC)c1ccc(-c2ccc(C(C)=O)cc2)nn1 | 25000 | 80 | 15000 | 5000 | 60 | 6000 | 100 | > 25000 | – | 25000 | 80 | 20000 | 80 | > 25000 | – | < 50% | – | 650 | – |
| CCOC(=O)c1ccc(-c2ccc(N(CC)CC)nn2)cc1 | 9000 | 60 | 4000 | 1500 | 70 | 500 | 90 | 1000 | 80 | 1500 | 60 | 500 | 80 | 3000 | 40 | 70% | Active | 120 | Activity [19]: Non-Toxic; Activity [20]: Non-Toxic; Activity [21]: Non-Toxic; Activity [22]: Non-Toxic; Activity [25]: Toxic |
| COC(=O)c1ccc(-c2ccc(N(C)C)nn2)cc1 | > 25000 | – | > 25000 | > 25000 | – | > 25000 | – | > 25000 | – | > 25000 | – | – | – | > 25000 | – | inactive | inactive | 3500 | – |
| CCOC(=O)c1cccc(-c2ccc(N(CC)CC)nn2)c1 | > 25000 | – | > 25000 | > 25000 | – | > 25000 | – | > 25000 | – | 30000 | 40 | > 25000 | – | > 25000 | – | – | – | – | – |
| COc1cccc2c1C(=O)c1c(O)c3c(c(O)c1C2=O)C[C@@](O)(C(=O)CO)C[C@@H]3O[C@H]1C[C@H](N)[C@H](O)[C@H](C)O1 [DOXORUBICIN] | 30 | 40 | 90 | 12 | 50 | 50 | 80 | 80 | 80 | 30 | 60 | 30 | 70 | 5 | 40 | – | – | – | – |
| CC(=O)O[C@H]1C(=O)[C@@]2(C)[C@H]([C@H](OC(=O)c3ccccc3)[C@]3(O)C[C@H](OC(=O)[C@H](O)[C@@H](NC(=O)c4ccccc4)c4ccccc4)C(C)=C1C3(C)C)[C@]1(OC(C)=O)CO[C@@H]1C[C@@H]2O [PACLITAXEL] | 12 | 50 | – | 60 | 60 | < 1 | 90 | < 1 | 60 | – | – | 2 | 70 | < 1 | 30 | – | – | – | – |
| CC[C@H](CO)Nc1nc(NCc2ccccc2)c2ncn(C(C)C)c2n1 [SELICICLIB] | 20000 | 90 | – | – | 80 | 9000 | 100 | 12000 | 8 | – | 40 | 12000 | 80 | 12000 | 40 | – | – | – | – |
